According to ChEMBL document CHEMBL1137818, “Structure and spasmolytic activity of eucalyptanoic acid from Eucalyptus camaldulensis var. obtusa and synthesis of its active derivative from oleanolic acid” (2002):

What was measured:
[1] = system: Jejunum; assay: Spasmolytic activity in rabbit jejunum assessed as inhibition of K+-induced muscle contraction at 1 mg/mL after 30 mins; assay type: functional; conditions: Oryctolagus cuniculus, 0.5 h
[2] = system: Jejunum; assay: Spasmolytic activity in rabbit jejunum assessed as inhibition of calcium influx-mediated spontaneous muscle contraction at 1 mg/mL after 30 mins; assay type: functional; conditions: Oryctolagus cuniculus, 0.5 h

SMILES	inhibition at 1000 µg/mL [1]	inhibition at 1000 µg/mL [2]
CC1(C)CC[C@]2(C(=O)O)CC[C@]3(C)C(=CC=C4[C@@]5(C)CC[C@H](O)C(C)(C)[C@@H]5CC[C@]43C)[C@H]2C1 [EUCALYPTANOIC ACID]	31.1%	58.2%
COC(=O)[C@]12CCC(C)(C)C[C@@H]1C1=CC[C@@H]3[C@@]4(C)CC[C@H](OC(C)=O)C(C)(C)[C@@H]4CC[C@@]3(C)[C@]1(C)CC2 [METHYL ACETYL OLEANOLATE]	35.5%	67.7%
COC(=O)[C@]12CCC(C)(C)C[C@@H]1C1=CC=C3[C@@]4(C)CC[C@H](OC(C)=O)C(C)(C)[C@@H]4CC[C@@]3(C)[C@]1(C)CC2 [METHYLACETYLEUCALYPTANOATE]	85.9%	95.3%
